Assay results as given in the NIST ThermoML archive (doi:10.1021/je1009224).
Numbers after ± are expanded uncertainties.

Assays:
[1] = 101.3 kPa, Liquid
[2] = xn = mol fraction of the nth substance listed; conditions: 101 kPa, Liquid

With `CCCCCC[n+]1ccn(C)c1.O=S(=O)([N-]S(=O)(=O)C(F)(F)F)C(F)(F)F` as the molecule, how does the viscosity ([1]; 283.1 K) read?
Its viscosity is 136 ± 11 mPa·s.

And the viscosity ([1]; 298.15 K)?
The viscosity was 70.1 ± 2.5 mPa·s.

What about the viscosity ([1]; 323.15 K) of the same molecule?
Its viscosity is 25.8 ± 0.8 mPa·s.

What about the viscosity ([1]; 348.15 K) of the same molecule?
Its viscosity is 13.5 ± 0.5 mPa·s.

With `CCCCCC[n+]1ccn(C)c1.O=S(=O)([N-]S(=O)(=O)C(F)(F)F)C(F)(F)F` + C=CCCCCCC as the molecule, how does the viscosity ([2]; 283.1 K, x2 = 0) read?
Its viscosity is 136 ± 11 mPa·s.

And the viscosity ([2]; 298.15 K, x2 = 0)?
The viscosity was 70.1 ± 2.5 mPa·s.

What about the viscosity ([2]; 323.15 K, x2 = 0) of the same molecule?
The viscosity was 25.8 ± 0.8 mPa·s.

And the viscosity ([2]; 348.15 K, x2 = 0)?
The viscosity was 13.5 ± 0.5 mPa·s.

With `C=CCCCCCC` [oct-1-ene] as the molecule, how does the viscosity ([1]; 283.1 K) read?
Its viscosity is 0.56 ± 0.03 mPa·s.

What about the viscosity ([1]; 298.15 K) of the same molecule?
The viscosity was 0.47 ± 0.03 mPa·s.

What about the viscosity ([1]; 323.15 K) of the same molecule?
The viscosity was 0.37 ± 0.03 mPa·s.

And the viscosity ([1]; 348.15 K)?
The viscosity was 0.3 ± 0.03 mPa·s.

What does the source list for `C=CCCCCCC` [oct-1-ene] + CCCCCC[n+]1ccn(C)c1.O=S(=O)([N-]S(=O)(=O)C(F)(F)F)C(F)(F)F?
viscosity ([2]; 283.1 K, x1 = 0.05): 127 ± 10 mPa·s; viscosity ([2]; 283.1 K, x1 = 0.1): 106 ± 7 mPa·s; viscosity ([2]; 283.1 K, x1 = 0.15): 93 ± 5 mPa·s; viscosity ([2]; 283.1 K, x1 = 1): 0.56 ± 0.03 mPa·s; viscosity ([2]; 298.15 K, x1 = 0.05): 66.6 ± 2.1 mPa·s; viscosity ([2]; 298.15 K, x1 = 0.1): 56.2 ± 1.9 mPa·s; viscosity ([2]; 298.15 K, x1 = 0.15): 51.2 ± 1.3 mPa·s; viscosity ([2]; 298.15 K, x1 = 1): 0.47 ± 0.03 mPa·s; viscosity ([2]; 323.15 K, x1 = 0.05): 24.4 ± 0.8 mPa·s; viscosity ([2]; 323.15 K, x1 = 0.1): 21.6 ± 0.7 mPa·s; viscosity ([2]; 323.15 K, x1 = 0.15): 20.5 ± 0.7 mPa·s; viscosity ([2]; 323.15 K, x1 = 1): 0.37 ± 0.03 mPa·s; viscosity ([2]; 348.15 K, x1 = 0.05): 13 ± 0.5 mPa·s; viscosity ([2]; 348.15 K, x1 = 0.1): 11.6 ± 0.5 mPa·s; viscosity ([2]; 348.15 K, x1 = 0.15): 11.4 ± 0.5 mPa·s; viscosity ([2]; 348.15 K, x1 = 1): 0.3 ± 0.03 mPa·s
